Measured values published in the supplement of paper PMC10307832.

Columns and labels:
Assay in all cases: relative viability (nuclei count vs DMSO), 5 days (fraction); higher = more cells survive
AGI-6780 + Luminespib = compound: O=C(Nc1cccc(C(F)(F)F)c1)Nc1cc(S(=O)(=O)NC2CC2)ccc1-c1ccsc1 [AGI-6780] + CCNC(=O)c1noc(-c2cc(C(C)C)c(O)cc2O)c1-c1ccc(CN2CCOCC2)cc1 [Luminespib] (partner 0.01 µM)
Outline: (§1)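 Relative viability was taken as the ratio of nuclei in treated wells to nuclei in vehicle wells. Lung cancer cell lines in 1536-well plates received compounds by pin tool one day after seeding, either one drug alone or a fixed anchor-drug dose plus five library-drug doses (not always all listed) in √10 steps. Nuclei were counted on 4× images after 5 days of treatment, and values are medians of duplicate plates.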

AGI-6780 + OSI-027 = compound: O=C(Nc1cccc(C(F)(F)F)c1)Nc1cc(S(=O)(=O)NC2CC2)ccc1-c1ccsc1 [AGI-6780] + COc1cccc2cc(-c3nc([C@H]4CC[C@H](C(=O)O)CC4)n4ncnc(N)c34)[nH]c12 [OSI-027] (partner 0.5 µM)
Outline: as §1

AGI-6780 + Lapatinib = compound: O=C(Nc1cccc(C(F)(F)F)c1)Nc1cc(S(=O)(=O)NC2CC2)ccc1-c1ccsc1 [AGI-6780] + CS(=O)(=O)CCNCc1ccc(-c2ccc3ncnc(Nc4ccc(OCc5cccc(F)c5)c(Cl)c4)c3c2)o1 [Lapatinib] (partner 2 µM)
Outline: as §1

AGI-6780 + Linsitinib = compound: O=C(Nc1cccc(C(F)(F)F)c1)Nc1cc(S(=O)(=O)NC2CC2)ccc1-c1ccsc1 [AGI-6780] + C[C@]1(O)C[C@@H](c2nc(-c3ccc4ccc(-c5ccccc5)nc4c3)c3c(N)nccn32)C1 [Linsitinib] (partner 1 µM)
Outline: as §1

| Cell Line | relative viability (AGI-6780 + Luminespib; first compound 0.08 µM) | relative viability (AGI-6780 + Luminespib; first compound 0.253 µM) | relative viability (AGI-6780 + Luminespib; first compound 0.8 µM) | relative viability (AGI-6780 + Luminespib; first compound 2.53 µM) | relative viability (AGI-6780 + Luminespib; first compound 8 µM) | relative viability (AGI-6780 + OSI-027; first compound 0.08 µM) | relative viability (AGI-6780 + OSI-027; first compound 0.253 µM) | relative viability (AGI-6780 + OSI-027; first compound 0.8 µM) | relative viability (AGI-6780 + OSI-027; first compound 2.53 µM) | relative viability (AGI-6780 + OSI-027; first compound 8 µM) | relative viability (AGI-6780 + Lapatinib; first compound 0.08 µM) | relative viability (AGI-6780 + Lapatinib; first compound 0.253 µM) | relative viability (AGI-6780 + Lapatinib; first compound 0.8 µM) | relative viability (AGI-6780 + Lapatinib; first compound 2.53 µM) | relative viability (AGI-6780 + Lapatinib; first compound 8 µM) | relative viability (AGI-6780 + Linsitinib; first compound 0.08 µM) | relative viability (AGI-6780 + Linsitinib; first compound 0.253 µM) | relative viability (AGI-6780 + Linsitinib; first compound 0.8 µM) | relative viability (AGI-6780 + Linsitinib; first compound 2.53 µM) | relative viability (AGI-6780 + Linsitinib; first compound 8 µM) |
| --- | --- | --- | --- | --- | --- | --- | --- | --- | --- | --- | --- | --- | --- | --- | --- | --- | --- | --- | --- | --- |
| NCI-H661 | 0.928 | 0.938 | 0.951 | 1.01 | 0.87 | 0.722 | 0.745 | 0.933 | 0.661 | 0.772 | 0.549 | 0.518 | 0.616 | 0.474 | 0.516 | 0.624 | 0.53 | 0.599 | 0.458 | 0.534 |
| CAL-12T | 0.245 | 0.58 | 0.644 | 0.476 | 0.402 | 0.748 | 0.76 | 0.693 | 0.428 | 0.519 |  | 0.582 | 0.876 | 0.572 | 0.619 | 0.771 | 0.726 | 0.72 | 1 | 0.892 |
| NCI-H1666 | 1.04 | 1.03 | 1.01 | 0.961 | 1.06 | 0.899 | 0.828 | 0.809 | 0.761 | 1.01 | 0.784 | 0.597 | 0.578 |  | 0.73 | 0.947 | 0.92 | 0.811 |  | 0.927 |
| NCI-H1915 | 0.781 | 0.894 | 0.879 | 0.698 | 0.836 | 0.678 | 0.663 | 0.594 | 0.465 | 0.623 | 0.96 | 0.989 | 0.988 | 0.982 | 0.977 | 1.1 | 1.04 | 1.08 | 1.06 | 1.08 |
| NCI-H2085 | 0.409 | 0.457 | 0.482 | 0.347 | 0.39 | 0.77 | 0.825 | 0.805 | 0.513 | 0.89 | 0.787 | 0.771 | 0.843 | 0.724 | 0.78 | 1.01 | 0.87 | 0.781 | 0.921 | 1.07 |
| COR-L23 | 0.772 | 0.641 | 0.695 | 0.663 | 0.643 | 0.743 | 0.77 | 0.705 | 0.527 | 0.784 | 0.905 | 0.919 | 0.982 | 1.31 | 0.997 | 0.969 | 0.766 | 0.77 | 1.08 | 0.891 |
| NCI-H1755 | 0.37 | 0.49 | 0.518 | 0.304 | 0.42 | 0.836 | 0.758 | 0.677 | 0.503 | 0.666 | 1.03 | 0.959 | 0.984 | 0.936 | 1.04 | 0.987 | 1.01 | 0.999 | 0.974 | 0.923 |
| NCI-H322M | 0.889 | 0.901 | 0.912 | 0.744 | 0.814 | 0.557 | 0.562 | 0.645 | 0.544 | 0.64 | 0.638 | 0.57 | 0.608 | 0.552 | 0.626 | 0.883 | 0.969 | 1.03 | 0.772 | 0.878 |
| COR-L 105 | 0.81 | 0.654 | 0.725 | 0.618 | 0.535 | 0.783 | 0.669 | 0.719 | 0.582 | 0.72 | 0.358 | 0.357 | 0.437 | 0.343 | 0.324 | 0.989 | 0.946 | 0.941 | 0.808 | 0.952 |
| HCC-827 | 0.584 | 0.586 | 0.707 | 0.467 | 0.454 | 0.68 | 0.705 | 0.824 | 0.673 | 0.798 | 0.201 | 0.215 | 0.197 | 0.191 | 0.179 | 1.01 | 0.96 | 0.872 | 0.989 | 0.942 |
| NCI-H2087 | 0.203 | 0.141 | 0.181 | 0.155 | 0.175 | 0.866 | 0.564 | 0.608 | 0.405 | 0.626 | 1.04 | 1.05 | 0.926 | 0.976 | 0.98 | 1.06 | 0.891 | 0.85 | 0.984 | 0.883 |
